Data as given in patent EP0583821A1, “Atriopeptins, guanylate cyclase activators, and phosphodiesterase inhibitors as treatment for glaucoma, hydrocephalus and cerebral edema (cranial fluid volume dysfunction)” (THE GENERAL HOSPITAL CORPORATION, priority 1987, dated 1988).

Key:
rabbits = experiment: Intraocular pressure and ocular observations after topical (eye drop) application; format: in vivo, rabbit
Method: The measurement of intraocular pressure (IOP), was performed using procedures similar to those described in Nathanson, Brit. J. Pharmacol., 73:97 (1981) and Nathanson, Current Eye Res., 4:191 (1985). Briefly, male (3-5 kg), New Zealand white rabbits were housed under standard conditions and exposed to a 12 hr light-dark cycle. IOP was measured with a Perkins applanation tonometer after topical anesthesia with 0.4% benoxinate (and 0.25% sodium fluorescein). The tonometer had been calibrated previously by connecting the anterior chamber of enucleated rabbit eyes to a manometer (and reservoir) and taking tonometer readings at different pressures. A number of preliminary IOP readings were made in order to accommodate the animals to the measurement procedure. Readings were then taken just prior to drug or vehicle injection and at 3, 9, 20, 27, 44, 51, 72, and 144 hours post-injection.
A potent PDE inhibitor of the arylxanthine class, 1,3-dibutylxanthine, was applied unilaterally and topically to rabbit eyes in a 0.5% solution. […] The IOP was decreased 4 mm (Hg) in the ipsilateral eye (Figure 8).
(§1) Again there was about a 4 mm (Hg) decrease in intraocular pressure. […] This xanthine inhibited the enzyme with an IC₅₀ (concentration necessary for 50% enzyme inhibition) of 25 uM.
The effect of nitroglycerine eye drops on rabbit intraocular pressure was also measured. The IOP of 8 conscious, male albino rabbits (3-4 kg) was measured by applanation pnumatonometry after topical anesthesia with 0.4% benoxinate. Nitroglycerine in phosphate buffered saline, pH 7.4, was given unilaterally, in two 25µl drops spaced five minutes apart. Blood pressure and pulse rate were measured by a photoelectric detector using an automated external tail cuff. […] By 24 hours, pressure had returned to normal.

cGMP phosphodiesterase = experiment: Inhibition of cGMP phosphodiesterase in ciliary process; format: biochemical; settings: Fig. 9B, read-out: IC₅₀ (concentration necessary for 50% enzyme inhibition)
Excerpt: The ability of any compound to inhibit cGMP phosphodiesterase (PDE) activity in broken-cell preparations of choroid epithelial cells or ciliary process can be determined either 1) by measuring the decrease in rate of hydrolysis of an added amount of cyclic GMP by PDE (see, Methods Section of Nathanson et al., Mol. Pharmacol. 12:390-398 (1975)), or 2) by measuring the rate of accumulation of one of the breakdown products of cyclic GMP, such as 5'-GMP or guanosine (see method of Filburn et al., Anal. Biochem. 52:505-516 (1973)). Both of these are herein incorporated by reference.
as §1

adenylate cyclase = experiment: Adenylate cyclase activity in P1 fractions of whole choroid; format: biochemical, rabbit; settings: rANP at high concentrations
Method: The effect of rANP on membrane-bound guanylate cyclase and adenylate cyclase activity in various brain-barrier tissues and tissue fractions from rabbit was compared with its activity in cerebrum and cerebellum. Guanylate cyclase was measured as the rate of cyclic GMP formation by modifications of the technique of Waldman et al., supra, incorporated herein by reference. Briefly, tissues were homogenized (10 mg wet weight per milliliter) in 50 mM tris-HCl, pH 8.0, 1 mM EDTA, 1 mM dithiothreitol, and 250 mM sucrose and centrifuged at 100,000g to obtain a P1 pellet. Reaction tubes contained (in 0.3 ml), 50 mM tris, pH 7.6, 6 mM MnCl₂, 0.5 mM 3-isobutyl, 1-methylxanthine (IBMX), 10 mM theophylline, 3 mM GTP, hormone (in 0.03 ml containing 2.5 mM ascorbic acid and 0.1% bovine serum albumin), and 0.06 ml of P1 fraction (40 to 60 ug of protein). The reaction (4 minutes at 30°C) was started by addition of GTP and terminated by addition of 0.3 ml of 150 mM sodium acetate (pH 4.0) and boiling for 3 minutes. Cyclic GMP formed was subsequently measured by radioimmunoassay as described in example 6, infra. Under these conditions, guanylate cyclase activity was linear with time and tissue concentration. Adenylate cyclase activity in P1 fractions was measured according to the method described by Nathanson, et al., Science; 204:843 (1979); Mol. Pharmacol. 18:199 (1980), see Figure 1C . […] Neurosci. […]

guanylate cyclase [1] = biological target: T1, guanylate cyclase (Oryctolagus cuniculus, UniProt G1TXB5); experiment: Atriopeptin-activated guanylate cyclase in kidney membrane (P1) fractions; format: biochemical, rabbit; design: tissues were homogenized (10 mg wet weight per milliliter); from tissue; host or cells: rabbit cerebral microvessels, choroid plexus, kidney, ciliary process, pia-arachnoid, cerebellum; 100,000 g P1 pellet; settings: mean ± range of duplicate determinations
T1 sequence (G1TXB5 28-1056): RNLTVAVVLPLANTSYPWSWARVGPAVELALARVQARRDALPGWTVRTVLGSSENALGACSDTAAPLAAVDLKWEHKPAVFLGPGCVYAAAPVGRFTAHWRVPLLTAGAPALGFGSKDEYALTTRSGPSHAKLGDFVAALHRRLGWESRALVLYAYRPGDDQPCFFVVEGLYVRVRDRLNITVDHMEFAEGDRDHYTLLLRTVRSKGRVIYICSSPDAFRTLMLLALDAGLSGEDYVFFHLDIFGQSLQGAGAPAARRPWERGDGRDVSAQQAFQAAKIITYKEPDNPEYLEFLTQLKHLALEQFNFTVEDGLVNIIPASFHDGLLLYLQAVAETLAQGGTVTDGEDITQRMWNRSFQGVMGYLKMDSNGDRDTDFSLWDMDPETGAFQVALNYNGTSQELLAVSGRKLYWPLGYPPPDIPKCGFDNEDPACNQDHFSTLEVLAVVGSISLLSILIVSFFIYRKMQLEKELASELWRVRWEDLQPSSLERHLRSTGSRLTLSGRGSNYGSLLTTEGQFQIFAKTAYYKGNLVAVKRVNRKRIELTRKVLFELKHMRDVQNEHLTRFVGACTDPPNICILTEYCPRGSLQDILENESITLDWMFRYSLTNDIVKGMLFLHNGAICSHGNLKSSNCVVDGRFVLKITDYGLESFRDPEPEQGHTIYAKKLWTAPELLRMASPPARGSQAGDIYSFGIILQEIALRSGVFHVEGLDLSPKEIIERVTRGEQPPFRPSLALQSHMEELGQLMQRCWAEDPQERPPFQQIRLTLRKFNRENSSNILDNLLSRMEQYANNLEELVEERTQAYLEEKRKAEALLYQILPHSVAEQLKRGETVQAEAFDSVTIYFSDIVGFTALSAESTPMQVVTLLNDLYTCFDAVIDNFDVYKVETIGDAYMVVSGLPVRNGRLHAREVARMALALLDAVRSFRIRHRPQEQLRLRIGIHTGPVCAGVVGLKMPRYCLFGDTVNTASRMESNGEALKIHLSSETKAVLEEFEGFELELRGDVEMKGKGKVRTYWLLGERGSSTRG
Method: The effect of rANP on membrane-bound guanylate cyclase and adenylate cyclase activity in various brain-barrier tissues and tissue fractions from rabbit was compared with its activity in cerebrum and cerebellum. Guanylate cyclase was measured as the rate of cyclic GMP formation by modifications of the technique of Waldman et al., supra, incorporated herein by reference. Briefly, tissues were homogenized (10 mg wet weight per milliliter) in 50 mM tris-HCl, pH 8.0, 1 mM EDTA, 1 mM dithiothreitol, and 250 mM sucrose and centrifuged at 100,000g to obtain a P1 pellet. Reaction tubes contained (in 0.3 ml), 50 mM tris, pH 7.6, 6 mM MnCl₂, 0.5 mM 3-isobutyl, 1-methylxanthine (IBMX), 10 mM theophylline, 3 mM GTP, hormone (in 0.03 ml containing 2.5 mM ascorbic acid and 0.1% bovine serum albumin), and 0.06 ml of P1 fraction (40 to 60 ug of protein). The reaction (4 minutes at 30°C) was started by addition of GTP and terminated by addition of 0.3 ml of 150 mM sodium acetate (pH 4.0) and boiling for 3 minutes. Cyclic GMP formed was subsequently measured by radioimmunoassay as described in example 6, infra. Under these conditions, guanylate cyclase activity was linear with time and tissue concentration. Adenylate cyclase activity in P1 fractions was measured according to the method described by Nathanson, et al., Science; 204:843 (1979); Mol. Pharmacol. 18:199 (1980), see Figure 1C . […] Neurosci. Abstr., 10, 899 (1984); Nathanson, et al., Soc. Neurosci. Abstr., 12, 1257 (1986), incorporated herein by reference, but with a lower concentration (0.025%) of trypsin and a rotating tissue tumbler which allowed cleaner fractionation of epithelial cells from erythrocytes and vascular components.
Ciliary process tips were obtained from male, 3-4 kg, New Zealand white rabbits, immediately following sacrifice with an overdose of ether, as described in Nathanson, Invest. Ophthal. Vis. Sci., 21:7981 (1982). […]
(§2) Atriopeptin-activated guanylate cyclase activity was measured as the rate of conversion of GTP to cyclic GMP. […]

guanylate cyclase [2] = biological target: T1, guanylate cyclase; experiment: Atriopeptin-activated guanylate cyclase in ciliary process membrane (P1) fractions; format: biochemical, rabbit; design: tissues were homogenized (10 mg wet weight per milliliter); from tissue; host or cells: rabbit cerebral microvessels, choroid plexus, kidney, ciliary process, pia-arachnoid, cerebellum; 100,000 g P1 pellet; settings: mean ± range of duplicate determinations
Method: Ciliary process tips were obtained from male, 3-4 kg, New Zealand white rabbits, immediately following sacrifice with an overdose of ether, as described in Nathanson, Invest. Ophthal. Vis. Sci., 21:7981 (1982). The tissue was minced and homogenized (10 mg/ml) by hand in a glass-glass homogenizer in a buffer consisting of 50 mM Tris HCl, pH 8.0; 1mM EDTA, and 250mM sucrose. The homogenate was diluted 30-fold with buffer and centrifuged at 100,000 x g, to obtain a P1 fraction. The pellet was rehomogenized in the original volume and left on ice until use. P1 fractions were also prepared from wedges of rabbit kidney taken from the same animals. In some experiments, P1 fractions were prepared from iris and from ciliary body, as described in Nathanson, Proc. Natl. Acad. Sci. USA, 77:7420 (1980). Briefly, iris was removed from its attachment to the ciliary body, cleaned of adhering ciliary process tissue, washed, and homogenized as above. The ciliary muscle was cleaned of most remaining ciliary process tissue, freed from the underlying sclera by blunt and sharp dissection, and then washed and homogenized.
as §2
For RIA, each tube contained (in 0.5ml), 50mM sodium acetate buffer (pH 6.2), 2mM EDTA, 1mg/ml bovine serum albumin, 0.1 ml of sample (or diluted sample), 8,000-15,000 cpm (about 5 fmole) of ¹²⁵I succinyl cyclic GMP tyrosine methyl ester, and antibody to bind 25-35% of the label. […] Activation constants (Ka) were determined from dose-response curves utilizing 12-14 data points (6-7 concentrations of hormone, in duplicate), each point representing the mean of triplicate RIA determinations.
Atriopeptin-activated guanylate cyclase activity was measured, as described in Example 5, in membranes from rabbit kidney and ciliary process prepared as in Example 4. […]

guanylate cyclase [3] = experiment: Ciliary process guanylate cyclase activity (Tables 2 and 3); format: biochemical; settings: Table 3; concentration not given

CCCCn1c(=O)c2[nH]cnc2n(CCCC)c1=O [1,3-dibutylxanthine]
IOP in the contralateral eye (rabbits; 0.5% solution, unilateral topical): small decrease | decrease of IOP in the ipsilateral eye (rabbits; 0.5% solution, unilateral topical, rabbit eyes): 4 mm (Hg)

CC(C)Cn1c(=O)n(C)c(=O)c2[nH]cnc21 [1-methyl-3-isobutyl-xanthine]
decrease in intraocular pressure (rabbits; topical administration, Fig. 9A): ~4 mm (Hg) | IC50 (cGMP phosphodiesterase): 25 µM

CC(C)NCC(O)c1ccc(O)c(O)c1 (stereo not drawn) [isoproterenol]
effect on adenylate cyclase activity (adenylate cyclase): stimulated

rANP 1-11 (SLRRSSCFGGR; Atrial natriuretic peptide; UniProt P01161 123-133, looked up, fragment)
Vmax Stimulation (%) of Guanylate Cyclase Kidney (guanylate cyclase [1]): 25 ± 6% | Vmax Stimulation (%) of Guanylate Cyclase Ciliary Process (guanylate cyclase [2]): 4 ± 6%

sodium nitrate [COMPOUND "N"]
effect on IOP (rabbits; 0.1% eye drop preparation, rabbits): lowers IOP | CILIARY PROCESS GUANYLATE CYCLASE ACTIVITY (Percent Increase) (guanylate cyclase [3]): 46 Percent Increase
